Source: article PMC9845116 (Saudi Pharmaceutical Journal : SPJ, 2022)
Like-named read-outs stand apart in the source and are kept apart here.

Columns and labels:
Type in all cases: cell-based
[1] = system: A549; experiment: MTT cell viability assay, A549; conditions: read-out: IC50(μM) A549
[2] = system: Hela; experiment: MTT cell viability assay, Hela; conditions: 48 h
[3] = system: HepG2; experiment: MTT cell viability assay, HepG2; conditions: read-out: IC50(μM) HepG2
[4] = system: MCF-7; experiment: MTT cell viability assay, MCF-7
[5] = Homo sapiens, HeLa, read-out: IC50(μM) Hela, MTT, 48 h, Hela
[6] = Homo sapiens, MCF7, 48 h, read-out: IC50(μM) MCF-7, MTT, 48 h, MCF-7
[7] = read-out: IC50(μM) Hela, MTT, Hela
[8] = read-out: IC50(μM) MCF-7, MTT, 48 h, MCF-7

Row | Molecule | IC50 ([1]; Homo sapiens, A549, 48 h) [µM] | IC50 [2, 5] [µM] | IC50 ([3]; Homo sapiens, HepG2, 48 h) [µM] | IC50 [4, 6] [µM] | IC50 ([1]; MTT, 48 h, A549) [µM] | IC50 [2, 7] [µM] | IC50 ([3]; MTT, 48 h, HepG2) [µM] | IC50 [4, 8] [µM]
1 | O=c1[nH]cc(F)c(=O)[nH]1 [5-Fu, 5-fluorouracil, reference compound] | 43.5 ± 1.22 | 43.8 ± 1.53 | 45.4 ± 1.35 | 55.2 ± 1.92 |  |  |  | 
2 | COc1cc(OC)c(C(=O)/C=C/c2c(OC)cc(OC)c(C)c2OC)c(OC)c1 [A6, (E)-3-(2,4,6-trimethoxy-3-methylphenyl)-1-(2,4,6-trimethoxyphenyl)prop-2-en-1-one] | 63.3 ± 1.41 | > 100 | > 100 | > 100 |  |  |  | 
3 | COc1cc(OC)c(C(=O)/C=C/c2ccccc2)c(OC)c1 [A7, (E)-3-phenyl-1-(2,4,6-trimethoxyphenyl)prop-2-en-1-one] | 59.4 ± 1.72 | 46.5 ± 1.33 | 47.1 ± 1.42 | 57.8 ± 1.45 |  |  |  | 
4 | COc1cc(OC)c(C(=O)/C=C/c2ccccn2)c(OC)c1 [B1, (E)-3-(pyridin-2-yl)-1-(2,4,6-trimethoxyphenyl)prop-2-en-1-one] | 10.6 ± 0.38 | 11.9 ± 0.44 | 10.8 ± 0.39 | 8.74 ± 0.63 |  |  |  | 
5 | COc1cc(OC)c(C(=O)/C=C/c2cccc(Br)n2)c(OC)c1 [B2, (E)-3-(6-bromopyridin-2-yl)-1-(2,4,6-trimethoxyphenyl)prop-2-en-1-one] | 9.36 ± 0.72 | 6.48 ± 0.33 | 7.12 ± 0.42 | 7.83 ± 0.45 |  |  |  | 
6 | COc1cc(OC)c(C(=O)/C=C/c2ccc(Br)cc2)c(OC)c1 [B4, (E)-3-(4-bromophenyl)-1-(2,4,6-trimethoxyphenyl)prop-2-en-1-one] | 19.8 ± 0.98 | 11.8 ± 0.86 | 13 ± 0.74 | 12.8 ± 0.64 |  |  |  | 
7 | COc1cc(OC)c(C(=O)/C=C/c2ccsc2)c(OC)c1 [B5, (E)-3-(thiophen-3-yl)-1-(2,4,6-trimethoxyphenyl)prop-2-en-1-one] | 46.9 ± 1.15 | 37.2 ± 1.22 | 19.9 ± 1.31 | 35.8 ± 1.35 |  |  |  | 
8 | COc1cc(OC)c(C(=O)/C=C/C2=CSC(Br)=CC2)c(OC)c1 [B6, (E)-3-(6-bromo-4H-thiopyran-3-yl)-1-(2,4,6-trimethoxyphenyl)prop-2-en-1-one] | 31.3 ± 0.63 | 18.9 ± 0.73 | 19.5 ± 0.59 | 26.3 ± 0.94 |  |  |  | 
9 | COc1cc(OC)c(C(=O)/C=C/c2ccoc2)c(OC)c1 [B7, (E)-3-(furan-3-yl)-1-(2,4,6-trimethoxyphenyl)prop-2-en-1-one] | 47.4 ± 2.12 | 81.3 ± 2.44 | 61.4 ± 1.34 | 82.9 ± 2.65 |  |  |  | 
10 | COc1cc(OC)c(C(=O)/C=C/c2coc(Br)c2)c(OC)c1 [B8, (E)-3-(5-bromofuran-3-yl)-1-(2,4,6-trimethoxyphenyl)prop-2-en-1-one] | > 100 | 49.8 ± 1.43 | 20.4 ± 1.52 | 48.8 ± 1.45 |  |  |  | 
11 | COc1cc(OC)c(C(=O)/C=C/c2cnc3ccccc3c2)c(OC)c1 [B10, (E)-3-(quinolin-3-yl)-1-(2,4,6-trimethoxyphenyl)prop-2-en-1-one] | 15.5 ± 0.74 | 13.6 ± 0.83 | 8.92 ± 0.68 | 10.7 ± 0.62 |  |  |  | 
12 | COc1cc(OC)c(C(=O)/C=C/c2cn(C)c3ccccc23)c(OC)c1 [B11, (E)-3-(1-methyl-1H-indol-3-yl)-1-(2,4,6-trimethoxyphenyl)prop-2-en-1-one] | > 100 | > 100 | > 100 | > 100 |  |  |  | 
13 | COc1cc(OC)c(C(=O)/C=C/c2ccc(-c3ccccc3)cc2)c(OC)c1 [B12, (E)-3-([1,1′-biphenyl]-4-yl)-1-(2,4,6-trimethoxyphenyl)prop-2-en-1-one] | 44.5 ± 1.05 | 46.3 ± 1.07 | 38.1 ± 1.45 | 51.6 ± 1.23 |  |  |  | 
14 | COc1cc(OC)c(C(=O)/C=C/c2ccc(-c3ccc(F)cc3)cc2)c(OC)c1 [B13, (E)-3-(4′-fluoro-[1,1′-biphenyl]-4-yl)-1-(2,4,6-trimethoxyphenyl)prop-2-en-1-one] | 40.6 ± 1.51 | 30.5 ± 0.89 | 25.6 ± 0.77 | 35.3 ± 1.14 |  |  |  | 
15 | COc1cc(OC)c(C(=O)/C=C/c2cc3ccccc3[nH]c2=O)c(OC)c1 [B14, (E)-3-(3-oxo-3-(2,4,6-trimethoxyphenyl)prop-1-en-1-yl)quinolin-2(1H)-one] | 10.7 ± 0.74 | 35 ± 0.83 | 17.6 ± 0.74 | 7.92 ± 0.59 |  |  |  | 
16 | COc1cc(OC)c(C(=O)/C=C/c2cc3cc(C)ccc3[nH]c2=O)c(OC)c1 [B15, (E)-6-methyl-3-(3-oxo-3-(2,4,6-trimethoxyphenyl)prop-1-en-1-yl)quinolin-2(1H)-one] | 20.4 ± 0.67 | 4.91 ± 0.3 | 18 ± 0.62 | 16 ± 0.56 |  |  |  | 
17 | COc1cc(OC)c(C(=O)/C=C/c2cc3cc(F)ccc3[nH]c2=O)c(OC)c1 [B16, (E)-6-fluoro-3-(3-oxo-3-(2,4,6-trimethoxyphenyl)prop-1-en-1-yl)quinolin-2(1H)-one] | 18.4 ± 0.65 | 18.1 ± 1.04 | 15.1 ± 0.62 | 12.6 ± 0.73 |  |  |  | 
18 | COc1cc(OC)c(C(=O)/C=C/c2ccc(OCC3CC3)cc2)c(OC)c1 [C1, (E)-3-(4-(cyclopropylmethoxy)phenyl)-1-(2,4,6-trimethoxyphenyl)prop-2-en-1-one] | > 100 | 45.5 ± 1.59 | 39.3 ± 1.55 | > 100 |  |  |  | 
19 | COc1cc(OC)c(C(=O)/C=C/c2ccc(OCC3CCCC3)cc2)c(OC)c1 [C2, (E)-3-(4-(cyclopentylmethoxy)phenyl)-1-(2,4,6-trimethoxyphenyl)prop-2-en-1-one] | 73.6 ± 1.17 | 22.6 ± 1.11 | > 100 | > 100 |  |  |  | 
20 | COc1cc(OC)c(C(=O)/C=C/c2ccc(OCC3CCCCC3)cc2)c(OC)c1 [C3, (E)-3-(4-(cyclohexylmethoxy)phenyl)-1-(2,4,6-trimethoxyphenyl)prop-2-en-1-one] | > 100 | > 100 | > 100 | > 100 |  |  |  | 
21 | COc1cc(OC)c(C(=O)/C=C/c2ccc(OCc3ccccc3)cc2)c(OC)c1 [C4, (E)-3-(4-(benzyloxy)phenyl)-1-(2,4,6-trimethoxyphenyl)prop-2-en-1-one] | > 100 | > 100 | > 100 | > 100 |  |  |  | 
22 | COc1cc(OC)c(C(=O)/C=C/c2ccc(OCc3ccc(Br)cc3)cc2)c(OC)c1 [C5, (E)-3-(4-((4-bromobenzyl)oxy)phenyl)-1-(2,4,6-trimethoxyphenyl)prop-2-en-1-one] | > 100 | > 100 | > 100 | > 100 |  |  |  | 
23 | COc1cc(OC)c(C(=O)/C=C/c2ccc(OCc3ccccn3)cc2)c(OC)c1 [C6, (E)-3-(4-(pyridin-2-ylmethoxy)phenyl)-1-(2,4,6-trimethoxyphenyl)prop-2-en-1-one] | 74.2 ± 1.84 | > 100 | > 100 | > 100 |  |  |  | 
24 | COc1cc(OC)c(C(=O)/C=C/c2ccc(OCc3ccsc3)cc2)c(OC)c1 [C7, (E)-3-(4-(thiophen-3-ylmethoxy)phenyl)-1-(2,4,6-trimethoxyphenyl)prop-2-en-1-one] | > 100 | 35 ± 1.17 | 51.1 ± 2.1 | 87.8 ± 2.7 |  |  |  | 
25 | COc1cc(OC)c(C(=O)/C=C/c2ccc(OCc3ccc4ccccc4c3)cc2)c(OC)c1 [C8, (E)-3-(4-(naphthalen-2-ylmethoxy)phenyl)-1-(2,4,6-trimethoxyphenyl)prop-2-en-1-one] | > 100 | > 100 | > 100 | > 100 |  |  |  | 
26 | COc1cc(OC)c(C(=O)/C=C/c2ccc(OCc3cnc4ccccc4c3)cc2)c(OC)c1 [C9, (E)-3-(4-(quinolin-3-ylmethoxy)phenyl)-1-(2,4,6-trimethoxyphenyl)prop-2-en-1-one] | > 100 | > 100 | > 100 | > 100 |  |  |  | 
27 | COc1cc(OC)c(C(=O)/C=C/c2ccc(OCc3cc4ccccc4[nH]c3=O)cc2)c(OC)c1 [C10, (E)-3-((4-(3-oxo-3-(2,4,6-trimethoxyphenyl)prop-1-en-1-yl)phenoxy)methyl)quinolin-2(1H)-one] | > 100 | > 100 | > 100 | > 100 |  |  |  | 
28 | (E)-3-(3,4-dimethoxyphenyl)-1-(2,4,6-trimethoxyphenyl)prop-2-en-1-one [A3] |  |  |  |  | > 100 | 71.5 ± 1.54 | 35.4 ± 1.37 | > 100
29 | (E)-3-(3,5-dimethoxyphenyl)-1-(2,4,6-trimethoxyphenyl)prop-2-en-1-one [A4] |  |  |  |  | 71.2 ± 1.56 | 32.3 ± 1.31 | 33.4 ± 1.37 | 32.4 ± 1.29
30 | (E)-3-(3-hydroxy-4-methoxyphenyl)-1-(2,4,6-trimethoxyphenyl)prop-2-en-1-one [A5] |  |  |  |  | 70.9 ± 1.82 | 38.8 ± 1.21 | 40.7 ± 1.29 | 24.7 ± 0.94
